Columns and labels:
Type in all cases: in vivo
[1] = tested on: barnyardgrass (Echinochloa crus-galli); test: Test A greenhouse herbicide test, pre- and postemergence
How it was run: (§1)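 Visual injury ratings, 0 (no effect) to 100 (complete control), versus untreated plants after roughly 10 d in a greenhouse. Compounds, formulated in a surfactant-containing non-phytotoxic solvent, were sprayed on loam–sand soil after sowing (pre) or on one- to two-leaf plants 2–10 cm tall (post).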

corn (Zea mays) = test: as above; settings: Postemergence; for Corn plant response rating: 0 is no effect, 100 is complete control
How it was run: as §1

[2] = tested on: foxtail, giant (giant foxtail, Setaria faberii); test: as above
How it was run: as §1

kochia (Kochia scoparia) = test: as above
How it was run: as §1

[3] = tested on: pigweed (Amaranthus retroflexus); test: as above
How it was run: as §1

[4] = tested on: ragweed (common ragweed, Ambrosia elatior); test: as above
How it was run: as §1

[5] = tested on: ryegrass, Italian (Italian ryegrass, Lolium multiflorum); test: as above
How it was run: as §1

[6] = tested on: wheat (Triticum aestivum); test: as above; settings: Postemergence; for Wheat plant response rating: 0 is no effect, 100 is complete control
How it was run: as §1

[7] = tested on: blackgrass (Alopecurus myosuroides); test: Test A greenhouse herbicide test, postemergence; settings: for Blackgrass plant response rating: 0 is no effect, 100 is complete control
How it was run: (§2)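 Scores are visual injury ratings from 0 (no effect) to 100 (complete control) versus untreated plants, taken roughly 10 d after treatment in the greenhouse. Treatment was postemergence, on one- to two-leaf plants 2–10 cm high growing in a loam soil/sand mix.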

[8] = tested on: galium (catchweed bedstraw, Galium aparine); test: Test A greenhouse herbicide test, postemergence; settings: for Galium plant response rating: 0 is no effect, 100 is complete control
How it was run: as §2

[9] = tested on: barnyardgrass (Echinochloa crus-galli); test: Test B flooded paddy test; settings: 250 g ai/ha, Flood; visual rating on scale of 0 to 100 where 0 is no effect and 100 is complete control; 13 to 15 d after treatment
How it was run: (§3)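 Ratings use a 0-100 visual scale, where 100 is complete control, and compare treated plants with controls after 13 to 15 d of greenhouse growth. Compound went straight into paddy water kept 3 cm over the soil surface, applied to seedlings at the 2-leaf stage.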

[10] = tested on: ducksalad (Heteranthera limosa); test: Test B flooded paddy test; settings: 250 g ai/ha, Flood; visual rating on scale of 0 to 100 where 0 is no effect and 100 is complete control; 13 to 15 d after treatment
How it was run: as §3

rice (Oryza sativa) = test: Test B flooded paddy test; settings: 250 g ai/ha, Flood; visual rating on scale of 0 to 100 where 0 is no effect and 100 is complete control; 13 to 15 d after treatment
How it was run: as §3

[11] = tested on: sedge, umbrella (small-flower umbrella sedge, Cyperus difformis); test: Test B flooded paddy test; settings: 250 g ai/ha, Flood; visual rating on scale of 0 to 100 where 0 is no effect and 100 is complete control; 13 to 15 d after treatment
How it was run: as §3

[12] = Postemergence, 125 g ai/ha, 0 to 100 scale, 0 no effect, 100 complete control
[13] = Postemergence, 500 g ai/ha, visual rating after approx. 10 d, 0 to 100 scale (0 no effect, 100 complete control)
[14] = Preemergence, 500 g ai/ha, 0 to 100 scale where 0 is no effect and 100 is complete control
[15] = Preemergence, second run of lines under the 500 g ai/ha head, rate not given, 0 to 100 scale
[16] = 125 g ai/ha, 0 to 100 scale, 0 no effect, 100 complete control
[17] = 500 g ai/ha, visual rating after approx. 10 d, 0 to 100 scale (0 no effect, 100 complete control)
[18] = Postemergence, 125 g ai/ha, 0 to 100 scale where 0 is no effect and 100 is complete control
[19] = Preemergence, 125 g ai/ha, 0 to 100 scale where 0 is no effect and 100 is complete control
[20] = 125 g ai/ha, 0 to 100 scale where 0 is no effect and 100 is complete control
[21] = Postemergence, 500 g ai/ha, 0 to 100 scale, 0 is no effect, 100 is complete control
[22] = Preemergence, 500 g ai/ha, 0 to 100 scale, 0 no effect, 100 complete control
[23] = Postemergence, 1000 g ai/ha, 0 to 100 scale, 0 is no effect, 100 is complete control
[24] = Preemergence, 1000 g ai/ha, 0 to 100 scale, 0 no effect, 100 complete control

Cc1cc(C)c2sc(C)c(-c3c(OCC#N)c(C)nn(C)c3=O)c2c1 [Compound 188]
Plant response rating, Barnyardgrass [1, 12]: 10 | Plant response rating, Barnyardgrass [1, 13]: 20 | Plant response rating, Barnyardgrass [1, 14]: 30 | Plant response rating, Barnyardgrass [1, 15]: 10 | Plant response rating, Corn (corn (Zea mays); [16]): 0 | Plant response rating, Corn (corn (Zea mays); [17]): 0 | Plant response rating, Foxtail, Giant [2, 12]: 20 | Plant response rating, Foxtail, Giant [2, 13]: 80 | Plant response rating, Foxtail, Giant [2, 14]: 90 | Plant response rating, Foxtail, Giant [2, 15]: 10 | Plant response rating, Kochia (kochia (Kochia scoparia); [12]): 10 | Plant response rating, Kochia (kochia (Kochia scoparia); [13]): 20 | Plant response rating, Kochia (kochia (Kochia scoparia); [14]): 20 | Plant response rating, Kochia (kochia (Kochia scoparia); [15]): 20 | Plant response rating, Pigweed [3, 12]: 50 | Plant response rating, Pigweed [3, 13]: 80 | Plant response rating, Pigweed [3, 14]: 90 | Plant response rating, Pigweed [3, 15]: 60 | Plant response rating, Ragweed [4, 12]: 20 | Plant response rating, Ragweed [4, 13]: 50 | Plant response rating, Ragweed [4, 14]: 30 | Plant response rating, Ragweed [4, 15]: 10 | Plant response rating, Ryegrass, Italian [5, 12]: 20 | Plant response rating, Ryegrass, Italian [5, 13]: 80 | Plant response rating, Ryegrass, Italian [5, 14]: 80 | Plant response rating, Ryegrass, Italian [5, 15]: 20 | Plant response rating, Wheat [6, 16]: 0 | Plant response rating, Wheat [6, 17]: 0 | Plant response rating, Blackgrass [7, 16]: 10 | Plant response rating, Blackgrass [7, 17]: 60 | Plant response rating, Galium [8, 16]: 70 | Plant response rating, Galium [8, 17]: 90 | Plant response rating, Barnyardgrass [9]: 0 | Plant response rating, Ducksalad [10]: 0 | Plant response rating, Rice (rice (Oryza sativa)): 0 | Plant response rating, Sedge, Umbrella [11]: 0

CC(=O)Oc1c(C)nn(C)c(=O)c1-c1c(C(F)(F)F)ccc2ccccc12 [Compound 148]
Plant response rating, Barnyardgrass [1, 18]: 10 | Plant response rating, Barnyardgrass [1, 13]: 30 | Barnyardgrass plant response rating [1, 19]: 10 | Plant response rating, Barnyardgrass [1, 14]: 60 | Plant response rating, Corn (corn (Zea mays); [20]): 0 | Plant response rating, Corn (corn (Zea mays); [17]): 0 | Plant response rating, Foxtail, Giant [2, 18]: 30 | Plant response rating, Foxtail, Giant [2, 13]: 70 | Foxtail, Giant plant response rating [2, 19]: 20 | Plant response rating, Foxtail, Giant [2, 14]: 50 | Plant response rating, Kochia (kochia (Kochia scoparia); [18]): 80 | Plant response rating, Kochia (kochia (Kochia scoparia); [13]): 90 | Kochia plant response rating (kochia (Kochia scoparia); [19]): 30 | Plant response rating, Kochia (kochia (Kochia scoparia); [14]): 90 | Plant response rating, Pigweed [3, 18]: 90 | Plant response rating, Pigweed [3, 13]: 90 | Pigweed plant response rating [3, 19]: 100 | Plant response rating, Pigweed [3, 14]: 100 | Plant response rating, Ragweed [4, 18]: 90 | Plant response rating, Ragweed [4, 13]: 90 | Plant response rating, Ragweed [4, 14]: 80 | Plant response rating, Ryegrass, Italian [5, 18]: 90 | Plant response rating, Ryegrass, Italian [5, 13]: 90 | Plant response rating, Ryegrass, Italian [5, 14]: 100 | Plant response rating, Wheat [6, 20]: 20 | Plant response rating, Wheat [6, 17]: 60 | Plant response rating, Blackgrass [7, 20]: 60 | Plant response rating, Blackgrass [7, 17]: 80 | Plant response rating, Galium [8, 20]: 90 | Plant response rating, Galium [8, 17]: 90 | Plant response rating, Barnyardgrass [9]: 0 | Plant response rating, Ducksalad [10]: 0 | Plant response rating, Rice (rice (Oryza sativa)): 0 | Plant response rating, Sedge, Umbrella [11]: 0

COc1nn(C)c(=O)c(-c2cccc3ccccc23)c1O [Compound 55]
Plant response rating, Barnyardgrass [1, 18]: 60 | Barnyardgrass plant response rating [1, 21]: 90 | Barnyardgrass plant response rating [1, 19]: 90 | Plant response rating, Barnyardgrass [1, 22]: 90 | Plant response rating, Corn (corn (Zea mays); [20]): 0 | Corn plant response rating (corn (Zea mays); 500 g ai/ha, 0 to 100 scale): 20 | Plant response rating, Foxtail, Giant [2, 18]: 70 | Foxtail, Giant plant response rating [2, 21]: 90 | Foxtail, Giant plant response rating [2, 19]: 80 | Plant response rating, Foxtail, Giant [2, 22]: 100 | Plant response rating, Kochia (kochia (Kochia scoparia); [18]): 90 | Kochia plant response rating (kochia (Kochia scoparia); [21]): 100 | Kochia plant response rating (kochia (Kochia scoparia); [19]): 70 | Plant response rating, Kochia (kochia (Kochia scoparia); [22]): 100 | Plant response rating, Pigweed [3, 18]: 70 | Pigweed plant response rating [3, 21]: 90 | Pigweed plant response rating [3, 19]: 70 | Plant response rating, Pigweed [3, 22]: 100 | Plant response rating, Ragweed [4, 18]: 90 | Ragweed plant response rating [4, 21]: 100 | Ragweed plant response rating [4, 19]: 90 | Plant response rating, Ragweed [4, 22]: 100 | Plant response rating, Ryegrass, Italian [5, 18]: 100 | Ryegrass, Italian plant response rating [5, 21]: 100 | Ryegrass, Italian plant response rating [5, 19]: 100 | Plant response rating, Ryegrass, Italian [5, 22]: 100 | Plant response rating, Wheat [6, 20]: 0 | Wheat plant response rating ([6]; 500 g ai/ha, 0 to 100 scale): 0 | Plant response rating, Blackgrass [7, 20]: 70 | Blackgrass plant response rating ([7]; 500 g ai/ha, 0 to 100 scale): 80 | Plant response rating, Galium [8, 20]: 100 | Galium plant response rating ([8]; 500 g ai/ha, 0 to 100 scale): 100 | Plant response rating, Barnyardgrass [9]: 0 | Plant response rating, Ducksalad [10]: 0 | Plant response rating, Rice (rice (Oryza sativa)): 0 | Plant response rating, Sedge, Umbrella [11]: 0

Cc1nn(C)c(=O)c(-c2cccc3ccccc23)c1OCC=Cc1ccccc1 [Compound 180]
Barnyardgrass plant response rating [1, 23]: 0 | Plant response rating, Barnyardgrass [1, 24]: 0 | Corn plant response rating (corn (Zea mays); 1000 g ai/ha, 0 to 100 scale): 0 | Foxtail, Giant plant response rating [2, 23]: 0 | Plant response rating, Foxtail, Giant [2, 24]: 10 | Kochia plant response rating (kochia (Kochia scoparia); [23]): 40 | Plant response rating, Kochia (kochia (Kochia scoparia); [24]): 0 | Pigweed plant response rating [3, 23]: 50 | Plant response rating, Pigweed [3, 24]: 40 | Ragweed plant response rating [4, 23]: 0 | Plant response rating, Ragweed [4, 24]: 40 | Ryegrass, Italian plant response rating [5, 23]: 70 | Plant response rating, Ryegrass, Italian [5, 24]: 50 | Wheat plant response rating ([6]; 1000 g ai/ha, 0 to 100 scale): 0 | Blackgrass plant response rating ([7]; 1000 g ai/ha, 0 to 100 scale): 30 | Galium plant response rating ([8]; 1000 g ai/ha, 0 to 100 scale): 80 | Plant response rating, Barnyardgrass [9]: 0 | Plant response rating, Ducksalad [10]: 0 | Plant response rating, Rice (rice (Oryza sativa)): 0 | Plant response rating, Sedge, Umbrella [11]: 0

Reference: patent US10597388B2, “Pyridazinone herbicides” (FMC CORPORATION, priority 2014, dated 2020)
